Measurements taken from ChEMBL document CHEMBL1133317, “The solid phase synthesis of tetrahydroisoquinolines having cdc25B inhibitory activity” (Bioorg Med Chem Lett, 2000).

Each molecule was assayed against T1, M-phase inducer phosphatase 2 (Homo sapiens, UniProt P30305) (assay: Compound was measured for its inhibitory activity against Cell division cycle 25B).
T1 sequence (P30305 whole entry): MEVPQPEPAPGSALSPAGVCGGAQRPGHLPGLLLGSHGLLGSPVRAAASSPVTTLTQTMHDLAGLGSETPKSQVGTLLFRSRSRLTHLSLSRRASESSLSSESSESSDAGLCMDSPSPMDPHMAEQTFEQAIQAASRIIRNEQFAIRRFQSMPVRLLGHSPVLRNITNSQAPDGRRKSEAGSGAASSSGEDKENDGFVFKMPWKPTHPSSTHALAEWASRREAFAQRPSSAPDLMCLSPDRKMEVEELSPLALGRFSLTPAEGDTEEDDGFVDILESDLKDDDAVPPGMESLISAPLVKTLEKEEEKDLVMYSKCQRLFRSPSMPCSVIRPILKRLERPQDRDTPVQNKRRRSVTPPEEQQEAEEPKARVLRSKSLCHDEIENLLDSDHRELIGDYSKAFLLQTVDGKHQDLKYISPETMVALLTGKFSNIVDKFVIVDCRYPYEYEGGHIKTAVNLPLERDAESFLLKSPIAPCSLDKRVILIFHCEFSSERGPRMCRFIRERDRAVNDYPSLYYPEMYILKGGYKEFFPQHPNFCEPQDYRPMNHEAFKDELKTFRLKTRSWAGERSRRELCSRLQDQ

Row | SMILES | IC50
1 | O=C(O)[C@@H]1Cc2cc(I)c(OCc3ccc(Cl)cc3Cl)c(I)c2CN1C(=O)/C=C/c1cc(Cl)cc(Cl)c1 | 23 µM
2 | O=C(O)[C@@H]1Cc2cc(I)c(OCc3ccc(C(F)(F)F)cc3)c(I)c2CN1C(=O)/C=C/c1ccccc1C(F)(F)F | 27 µM
3 | O=C(O)[C@@H]1Cc2cc(I)c(OCCCCl)c(I)c2CN1C(=O)/C(F)=C/c1ccccc1 | 100 µM
4 | O=C(O)[C@@H]1Cc2cc(I)c(OCc3ccccc3F)c(I)c2CN1C(=O)/C=C/c1cccc(C(F)(F)F)c1 | 45 µM
5 | COc1cccc(COc2c(I)cc3c(c2I)CN(C(=O)/C=C/c2ccc4c(c2)OCO4)[C@H](C(=O)O)C3)c1 | 58 µM
6 | O=C(O)[C@@H]1Cc2cc(I)c(OCc3ccc(Cl)cc3Cl)c(I)c2CN1C(=O)/C(F)=C/c1ccccc1 | 36 µM
7 | O=C(O)[C@@H]1Cc2cc(I)c(OCCCCl)c(I)c2CN1C(=O)/C=C/c1ccc(Br)cc1 | 70 µM
8 | Cc1ccc(/C=C/C(=O)N2Cc3c(cc(I)c(OCc4cccc(C(F)(F)F)c4)c3I)C[C@H]2C(=O)O)cc1 | 30 µM
9 | O=C(O)[C@@H]1Cc2cc(I)c(OCc3ccc(Cl)cc3Cl)c(I)c2CN1C(=O)CCc1ccccc1 | 50 µM
10 | O=C(O)[C@@H]1Cc2cc(I)c(OCCCCl)c(I)c2CN1C(=O)/C=C/c1ccccc1Cl | 27 µM
11 | O=C(O)[C@@H]1Cc2cc(I)c(OCc3cccc(C(F)(F)F)c3)c(I)c2CN1C(=O)/C=C/c1cccc(F)c1 | 45 µM
12 | O=C(O)[C@@H]1Cc2cc(I)c(OCc3ccc(Cl)cc3Cl)c(I)c2CN1C(=O)/C=C/c1ccccc1Br | 33 µM
13 | O=C(O)[C@@H]1Cc2cc(I)c(OCc3ccc(Cl)cc3Cl)c(I)c2CN1C(=O)/C=C/c1cccc(Br)c1 | 40 µM
14 | O=C(O)[C@@H]1Cc2cc(I)c(OCc3c(Cl)cccc3Cl)c(I)c2CN1C(=O)CCc1ccccc1 | > 100 µM
15 | O=C(O)[C@@H]1Cc2cc(I)c(OCc3ccc(C(F)(F)F)cc3)c(I)c2CN1C(=O)/C=C/c1ccc(Cl)cc1 | 30 µM
16 | O=C(O)[C@@H]1Cc2cc(I)c(OCc3cccc(C(F)(F)F)c3)c(I)c2CN1C(=O)/C=C/c1ccccc1F | 35 µM
17 | C/C(=C\c1ccccc1)C(=O)N1Cc2c(cc(I)c(OCc3ccc(Cl)cc3Cl)c2I)C[C@H]1C(=O)O | 40 µM
18 | O=C(O)[C@@H]1Cc2cc(I)c(OCc3cccc(C(F)(F)F)c3)c(I)c2CN1C(=O)/C=C/c1cccc(Cl)c1 | 40 µM
19 | O=C(COc1c(I)cc2c(c1I)CN(C(=O)/C=C/c1ccc(Cl)cc1Cl)[C@H](C(=O)O)C2)OCc1ccccc1 | 28 µM
20 | O=C(O)[C@@H]1Cc2cc(I)c(OCc3c(Cl)cccc3Cl)c(I)c2CN1C(=O)c1cccnc1Cl | 45 µM
21 | O=C(O)[C@@H]1Cc2cc(I)c(OCc3c(Cl)cccc3Cl)c(I)c2CN1C(=O)/C=C/c1ccc(Cl)c(Cl)c1 | 55 µM
22 | O=C(COc1c(I)cc2c(c1I)CN(C(=O)/C(F)=C/c1ccccc1)[C@H](C(=O)O)C2)OCc1ccccc1 | 90 µM

Row | SMILES | IC50
23 | O=C(O)[C@@H]1Cc2cc(I)c(OCc3ccc(Cl)cc3Cl)c(I)c2CN1C(=O)c1cccnc1Cl | > 100 µM
24 | O=C(O)[C@@H]1Cc2cc(I)c(OCc3ccc(Cl)cc3Cl)c(I)c2CN1C(=O)/C=C/c1cccc(C(F)(F)F)c1 | 15 µM
25 | COc1cccc(COc2c(I)cc3c(c2I)CN(C(=O)/C=C/c2ccc(Cl)cc2)[C@H](C(=O)O)C3)c1 | 75 µM
26 | O=C(O)[C@@H]1Cc2cc(I)c(OCc3cccc(C(F)(F)F)c3)c(I)c2CN1C(=O)CCc1ccccc1 | 50 µM
27 | O=C(O)[C@@H]1Cc2cc(I)c(OCc3ccc(Cl)cc3Cl)c(I)c2CN1C(=O)/C=C/c1cccc(F)c1 | 40 µM
28 | O=C(COc1c(I)cc2c(c1I)CN(C(=O)/C=C/c1ccccc1Cl)[C@H](C(=O)O)C2)OCc1ccccc1 | 70 µM
29 | Cc1ccc(/C=C/C(=O)N2Cc3c(cc(I)c(OCc4ccc(C(F)(F)F)cc4)c3I)C[C@H]2C(=O)O)cc1 | 35 µM
30 | O=C(O)[C@@H]1Cc2cc(I)c(OCc3ccc(Cl)cc3Cl)c(I)c2CN1C(=O)/C=C/c1ccc2c(c1)OCO2 | 60 µM
31 | O=C(O)[C@@H]1Cc2cc(I)c(OCc3ccc(Cl)cc3Cl)c(I)c2CN1C(=O)/C=C/c1ccc(Cl)cc1 | 35 µM
32 | O=C(O)[C@@H]1Cc2cc(I)c(OCc3ccc(Cl)cc3Cl)c(I)c2CN1C(=O)/C=C/c1ccc(Cl)c(Cl)c1 | 30 µM
33 | O=C(O)[C@@H]1Cc2cc(I)c(OCc3cccc(C(F)(F)F)c3)c(I)c2CN1C(=O)/C=C/c1ccccc1C(F)(F)F | 36 µM
34 | COc1cccc(COc2c(I)cc3c(c2I)CN(C(=O)/C=C/c2ccc(C)cc2)[C@H](C(=O)O)C3)c1 | 62 µM
35 | O=C(O)[C@@H]1Cc2cc(I)c(OCc3cccc(C(F)(F)F)c3)c(I)c2CN1C(=O)/C=C/c1ccc([N+](=O)[O-])cc1 | 50 µM
36 | O=C(O)[C@@H]1Cc2cc(I)c(OCc3c(Cl)cccc3Cl)c(I)c2CN1C(=O)/C=C/c1cccc(Cl)c1 | 20 µM
37 | O=C(O)[C@@H]1Cc2cc(I)c(OCc3ccc(C(F)(F)F)cc3)c(I)c2CN1C(=O)/C=C/c1ccccc1F | 55 µM
38 | O=C(O)[C@@H]1Cc2cc(I)c(OCc3ccc(Cl)cc3Cl)c(I)c2CN1C(=O)/C=C/c1ccccc1Cl | 15 µM
39 | O=C(O)[C@@H]1Cc2cc(I)c(OCc3ccc(C(F)(F)F)cc3)c(I)c2CN1C(=O)/C=C/c1ccc2c(c1)OCO2 | 32 µM
40 | O=C(O)[C@@H]1Cc2cc(I)c(OCc3ccc(C(F)(F)F)cc3)c(I)c2CN1C(=O)/C=C/c1ccc([N+](=O)[O-])cc1 | 55 µM
41 | O=C(O)[C@@H]1Cc2cc(I)c(OCc3c(Cl)cccc3Cl)c(I)c2CN1C(=O)/C=C/c1cccc(F)c1 | 45 µM
42 | O=C(O)[C@@H]1Cc2cc(I)c(OCc3ccccc3F)c(I)c2CN1C(=O)c1cccnc1Cl | 90 µM
43 | O=C(O)[C@@H]1Cc2cc(I)c(OCc3ccccc3F)c(I)c2CN1C(=O)CCc1ccccc1 | 80 µM
44 | O=C(O)[C@@H]1Cc2cc(I)c(OCCCCl)c(I)c2CN1C(=O)/C=C/c1ccccc1Br | 33 µM

Row | SMILES | IC50
45 | O=C(O)C1Cc2cc(I)c(OCc3c(Cl)cccc3Cl)c(I)c2CN1C(=O)C1CCCC1 (stereo not given) | 100 µM
46 | O=C(COc1c(I)cc2c(c1I)CN(C(=O)/C=C/c1cccc(Br)c1)[C@H](C(=O)O)C2)OCc1ccccc1 | 90 µM
47 | O=C(O)[C@@H]1Cc2cc(I)c(OCc3ccccc3F)c(I)c2CN1C(=O)/C=C/c1cccc(Cl)c1 | 60 µM
48 | O=C(COc1c(I)cc2c(c1I)CN(C(=O)/C=C/c1ccc(Br)cc1)[C@H](C(=O)O)C2)OCc1ccccc1 | 90 µM
49 | O=C(O)[C@@H]1Cc2cc(I)c(OCc3cccc(C(F)(F)F)c3)c(I)c2CN1C(=O)/C=C/c1ccc(Cl)c(Cl)c1 | 75 µM
50 | O=C(O)[C@@H]1Cc2cc(I)c(OCc3c(Cl)cccc3Cl)c(I)c2CN1C(=O)/C=C/c1cccc(C(F)(F)F)c1 | 35 µM
51 | O=C(O)[C@@H]1Cc2cc(I)c(OCc3ccc(Cl)cc3Cl)c(I)c2CN1C(=O)/C=C/c1ccc(Br)cc1 | 23 µM
52 | O=C(O)[C@@H]1Cc2cc(I)c(OCc3ccc(C(F)(F)F)cc3)c(I)c2CN1C(=O)/C=C/c1cccc(F)c1 | 30 µM
53 | O=C(O)[C@@H]1Cc2cc(I)c(OCc3ccc(Cl)cc3Cl)c(I)c2CN1C(=O)/C=C/c1ccc([N+](=O)[O-])cc1 | 45 µM
54 | O=C(O)[C@@H]1Cc2cc(I)c(OCc3cccc(C(F)(F)F)c3)c(I)c2CN1C(=O)c1cccnc1Cl | 30 µM
55 | COc1cc(/C=C/C(=O)N2Cc3c(cc(I)c(OCc4ccc(C(F)(F)F)cc4)c3I)C[C@H]2C(=O)O)cc(OC)c1OC | 57 µM
56 | Cc1ccc(/C=C/C(=O)N2Cc3c(cc(I)c(OCc4ccc(Cl)cc4Cl)c3I)C[C@H]2C(=O)O)cc1 | 27 µM
57 | O=C(COc1c(I)cc2c(c1I)CN(C(=O)/C=C/c1ccccc1Br)[C@H](C(=O)O)C2)OCc1ccccc1 | 45 µM
58 | O=C(O)[C@@H]1Cc2cc(I)c(OCc3cccc(C(F)(F)F)c3)c(I)c2CN1C(=O)/C=C/c1ccc2c(c1)OCO2 | 66 µM
59 | O=C(O)[C@@H]1Cc2cc(I)c(OCc3ccccc3F)c(I)c2CN1C(=O)/C=C/c1ccc(Cl)c(Cl)c1 | 75 µM
60 | O=C(O)[C@@H]1Cc2cc(I)c(OCc3ccc(Cl)cc3Cl)c(I)c2CN1C(=O)/C=C/c1cccc(Cl)c1 | 35 µM
61 | COc1cccc(COc2c(I)cc3c(c2I)CN(C(=O)/C=C/c2ccc([N+](=O)[O-])cc2)[C@H](C(=O)O)C3)c1 | 59 µM
62 | O=C(O)[C@@H]1Cc2cc(I)c(OCCCCl)c(I)c2CN1C(=O)/C=C/c1ccc(Cl)cc1Cl | 52 µM
63 | O=C(O)[C@@H]1Cc2cc(I)c(OCCCCl)c(I)c2CN1C(=O)/C=C/c1cccc(Br)c1 | 70 µM
64 | O=C(O)[C@@H]1Cc2cc(I)c(OCc3ccccc3F)c(I)c2CN1C(=O)/C=C/c1cccc(F)c1 | 75 µM
65 | O=C(O)[C@@H]1Cc2cc(I)c(OCc3cccc(C(F)(F)F)c3)c(I)c2CN1C(=O)/C=C/c1cccc(C(F)(F)F)c1 | 50 µM

The molecules below were run against T2, M-phase inducer phosphatase 2 (Homo sapiens) (UniProt P30305) (assay: Inhibitory activity against Cell division cycle 25B at 100 uM).
T2 sequence (whole entry): T1 sequence (P30305 whole entry)

Row | SMILES | inhibition
66 | C/C(=C\c1ccccc1)C(=O)N1Cc2c(cc(I)c(OCC(=O)OCc3ccccc3)c2I)C[C@H]1C(=O)O | 24%
67 | N#C/C(=C\c1ccccc1)C(=O)N1Cc2c(cc(I)c(OCCCCl)c2I)C[C@H]1C(=O)O | 11%
68 | C/C(=C\c1ccccc1)C(=O)N1Cc2c(cc(I)c(OCCCCl)c2I)C[C@H]1C(=O)O | 12%
69 | N#C/C(=C\c1ccccc1)C(=O)N1Cc2c(cc(I)c(O)c2I)C[C@H]1C(=O)O | 12%
70 | COc1cccc(COc2c(I)cc3c(c2I)CN(C(=O)/C=C/c2cccc(F)c2)[C@H](C(=O)O)C3)c1 | 41%
